These results are taken from patent US8148097B2, “Screening method for identification of compounds with calcium-independent phospholipase A2β (iPLA2β) modulating activity” (Washington University, priority 2005, dated 2012).

This assay concerns the target T1, iPLA2β (Cricetulus griseus, UniProt A0A3L7I2I8).
T1 construct: (His)6; made in house; host or cells: Sf9 insect cells (baculovirus)
T1 sequence (A0A3L7I2I8 1-752 isoform A0A3L7I2I8-2): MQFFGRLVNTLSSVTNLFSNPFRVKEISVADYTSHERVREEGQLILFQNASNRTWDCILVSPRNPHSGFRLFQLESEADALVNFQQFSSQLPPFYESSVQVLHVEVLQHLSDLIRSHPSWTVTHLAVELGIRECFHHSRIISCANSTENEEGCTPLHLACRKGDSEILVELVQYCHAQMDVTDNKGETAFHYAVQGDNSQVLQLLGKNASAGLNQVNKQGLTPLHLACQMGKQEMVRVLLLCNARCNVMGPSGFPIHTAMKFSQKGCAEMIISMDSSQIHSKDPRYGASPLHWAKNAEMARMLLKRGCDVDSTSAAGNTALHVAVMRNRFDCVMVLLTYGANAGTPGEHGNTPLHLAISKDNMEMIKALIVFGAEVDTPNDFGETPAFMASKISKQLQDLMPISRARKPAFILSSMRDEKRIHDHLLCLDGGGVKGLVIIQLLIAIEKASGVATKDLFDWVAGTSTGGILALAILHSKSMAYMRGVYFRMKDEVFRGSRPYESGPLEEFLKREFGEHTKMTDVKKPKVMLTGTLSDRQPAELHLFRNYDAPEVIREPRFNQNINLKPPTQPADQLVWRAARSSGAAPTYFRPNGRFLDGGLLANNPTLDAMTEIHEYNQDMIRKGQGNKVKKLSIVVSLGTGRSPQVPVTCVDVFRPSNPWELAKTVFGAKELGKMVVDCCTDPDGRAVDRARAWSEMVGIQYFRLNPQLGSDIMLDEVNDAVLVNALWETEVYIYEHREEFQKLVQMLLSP
The experiment in a line: Covalent acylation (autoacylation) of iPLA2β with [14C]-long chain acyl-CoAs. The assay is classed as biochemical. How it is done: FIG. 5—Equivalent amounts of the indicated [1-^14C]-acyl-CoA guests (5 mol %) were incorporated into host POPC (100 μM) vesicles and incubated for 1 hr at 37° C. with equal amounts of either wild-type (WT) iPLA2β(His)6 (peptide disclosed as SEQ ID NO: 4), S465A iPLA2β(His)6 (peptide disclosed as SEQ ID NO: 4), or BEL-pretreated WT iPLA2β(His)6 (peptide disclosed as SEQ ID NO: 4) enzyme as described in Experimental Procedures. Samples were resolved by SDS-PAGE (10% gel), fixed, and dried before visualization by autoradiography.
FIG. 6—Purified iPLA2β(His)6 (peptide disclosed as SEQ ID NO: 4) (2 μM) was incubated with the indicated concentrations of [1-^14C]-oleoyl-CoA present as guest in host POPC (100 μM) vesicles for 1 hr at 37° C. Samples were electrophoresed in parallel with standard amounts (0.5-10 nCi) of [^14C]-BSA of known activity (not shown). The fixed and dried gel was exposed to film and the resultant signals from the [^14C]-BSA were utilized to generate a standard curve utilizing ID software from a Kodak Imagestation to determine the incorporation of [1-^14C]-oleate into iPLA2β.
FIG. 7—Purified iPLA2β(His)6 (peptide disclosed as SEQ ID NO: 4) was incubated with [1-^14C]-oleoyl CoA (10 mol %) incorporated as guest in host POPC vesicles. N-ethylmaleimide and iodoacetamide samples were pretreated with 5 mM of either reagent for 5 min at 30° C. before addition of [1-^14C]-oleoyl-CoA. Samples were incubated with 1 N HCl, 1 N NaOH, or 2 N neutral hydroxylamine for 1 hr at 30° C. as indicated. All samples, except lane 1, were precipitated with CHCl3/MeOH and washed with 70% acetone before SDS-PAGE and autoradiography as described in Experimental Procedures.
FIG. 10—Purified iPLA2β(His)6 (peptide disclosed as SEQ ID NO: 4) was incubated with [1-^14C]-oleoyl CoA (10 mol %) incorporated as guest in host POPC vesicles in the presence of EGTA (5 mM), Ca^2+ (1 mM), CaM (3 μg), or Ca^2+-CaM for 1 h at 37° C. Samples were resolved by SDS-PAGE and the gel was soaked in Amplify fluorographic reagent, dried, and exposed to film as described in Experimental Procedures.
Covalent Modification of […] with [^14C]-long chain Acyl CoAs—Purified recombinant iPLA2β(His)6 (peptide disclosed as SEQ ID NO: 4) was incubated with POPC vesicles containing 10 mol % [1-^14C]-acyl-CoA for 1 h at 37° C. […] Chloroform/methanol precipitation of some samples was performed as described (66) utilizing 15 μg of bovine serum albumin as carrier. In tests to examine the nature of the covalent linkage between oleic acid and iPLA2β, acid (HCl), base (NaOH), and hydroxylamine were added to the indicated concentrations and the samples were incubated at 30° C. for 1 h. Bovine serum albumin (15 μg) and SDS-PAGE loading buffer were then added to each sample prior to dialysis against 50 mM Tris-HCl, pH 6.8 containing 10% glycerol and 1% SDS for 4 h. Samples were electrophoresed by SDS-PAGE, fixed (40% methanol containing 10% acetic acid), stained with Coomassie Blue R-250, incubated in Amplify fluorographic reagent, dried, and exposed to Kodak Biomax MR film for 2-5 days at −80° C.

Consider `CCCCCCCC/C=C\CCCCCCCC(=O)SCCNC(=O)CCNC(=O)[C@H](O)C(C)(C)COP(=O)(O)OP(=O)(O)OC[C@H]1O[C@@H](n2cnc3c(N)ncnc32)[C@H](O)[C@@H]1OP(=O)(O)O` [oleoyl-CoA], for which the “[1-14C]-oleic acid incorporated per mole of iPLA2β” value (POPC vesicles, up to 5-fold molar excess of oleoyl-CoA, FIG. 6) is reported as “approximately 1 mole”. Also, the “radiolabeling of iPLA2β, fold greater than saturated counterparts” value (wild-type iPLA2β, FIG. 5) is reported as 10-100 fold.
